Results: US20240360417A1, “CELL THERAPEUTIC AGENT FOR CANCER TREATMENT AND COMBINATION THERAPY WITH SAME” (Cell&Brain Co., Ltd, priority 2015, published 2024)

Tests used:
U87/GFP = test: In vitro combination therapy of F cells + 5-FC with irinotecan (isobologram); type: cell-based; details: 144 h; U87/GFP co-cultured with F cells (MSC/CD), 6 days; read-out: IC50 values obtained by treatment alone
Experimental: 10,000 U87/GFP and 10,000 F cells (MSC/CD) were cultured in a 12-well plate. From the next day, the cells were treated with Irinotecan (Sigma) at a concentration of 0 to 30 μM and the prodrug 5-FC at a concentration of 0 to 300 μM, and cultured for 6 days while replacing with a new medium containing the drug once every two days. On the 7th day, the culture solution was removed, 200 μl of 1× passive lysis buffer was then added to each well, and each well was allowed to stand at 4° C. for 10 minutes. The cell lysate was collected and centrifuged at 12,000 rpm for 5 minutes to obtain supernatant. 100 μl of the supernatant was transferred to a black 96-well plate in which light is blocked, and the intensity of fluorescence was measured under conditions of excitation 488 nm and emission 530 nm using a fluorimeter (GEMINI EM).

[1] = tested on: U87MG glioma cells expressing LacZ; test: In vivo combination therapy with temozolomide, orthotopic brain tumor model; details: survival measured up to 90 days
Experimental: On the 6th days after transplantation of U87MG glioma cells expressing LacZ, the F cells prepared in Preparation Example 2 were suspended in a Plasma Solution A, followed by centrifugation at 500×g for 5 minutes. The supernatant was discarded, and the washing procedure was repeated twice. Then, the cell suspension was prepared to have a concentration of 3×10^5/6 μl. The cell suspension was transplanted at a rate of 0.3 μl/min at the brain coordinates of AP=+0.5 mm, ML=−1.8 mm, and DV=−3 mm. From the next day after the cell transplantation, 5-FC (15 mg/ml physiological saline) was intraperitoneally injected at a dose of 500 mg/kg for one week. […] On 28th day, brain tissues were obtained from 8 animals in each animal group and X-gal staining was performed in the same manner as in Example 2 to measure the size of brain tumor.

Row | IC50 (U87/GFP) | Compound | median survival [1]
1 | 73.6 µM | Nc1nc(=O)[nH]cc1F [5-FC, 5-fluorocytosine] | 
2 | 3.2 µM | CCc1c2c(nc3ccc(OC(=O)N4CCC(N5CCCCC5)CC4)cc13)-c1cc3c(c(=O)n1C2)COC(=O)[C@]3(O)CC [irinotecan] | 
3 |  | Cn1nnc2c(C(N)=O)ncn2c1=O [temozolomide] | 42 days
